Here are results for 14 molecules from patent US7452887B2, “Quinoline- and isoquinoline-based compounds exhibiting ATP-utilizing enzyme inhibitory activity, and compositions, and uses thereof” (Amphora Discovery Corporation, priority 2004, dated 2008).

Each structure is given as a SMILES string.

What all share (assay): HTS ATP-utilizing enzyme assay, off-chip mobility-shift (Caliper HTS 250)
What all share (type): biochemical
Common to all, as to settings: test compound 10 μM, kinase listed = active (greater than six-sigma from the mean activity of inactive compounds)

Assay [1] concerns the target MAPKAPK2 (Homo sapiens, UniProt P49137). The method, boiled down: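 Single-point screen of test compound at 10 μM against MAPKAPK2 with peptide substrate in HEPES pH 7.5 buffer (Triton X-100, BSA), 2.5 h at 20-22 °C. Substrate-to-phosphopeptide ratio was read by off-chip microfluidic mobility shift; EDTA and DMSO wells defined 100% and 0% controls, hits by six-sigma limits.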

Assay [2] concerns the target T1, BMX (Homo sapiens, UniProt P51813).
T1 sequence (P51813 1-675): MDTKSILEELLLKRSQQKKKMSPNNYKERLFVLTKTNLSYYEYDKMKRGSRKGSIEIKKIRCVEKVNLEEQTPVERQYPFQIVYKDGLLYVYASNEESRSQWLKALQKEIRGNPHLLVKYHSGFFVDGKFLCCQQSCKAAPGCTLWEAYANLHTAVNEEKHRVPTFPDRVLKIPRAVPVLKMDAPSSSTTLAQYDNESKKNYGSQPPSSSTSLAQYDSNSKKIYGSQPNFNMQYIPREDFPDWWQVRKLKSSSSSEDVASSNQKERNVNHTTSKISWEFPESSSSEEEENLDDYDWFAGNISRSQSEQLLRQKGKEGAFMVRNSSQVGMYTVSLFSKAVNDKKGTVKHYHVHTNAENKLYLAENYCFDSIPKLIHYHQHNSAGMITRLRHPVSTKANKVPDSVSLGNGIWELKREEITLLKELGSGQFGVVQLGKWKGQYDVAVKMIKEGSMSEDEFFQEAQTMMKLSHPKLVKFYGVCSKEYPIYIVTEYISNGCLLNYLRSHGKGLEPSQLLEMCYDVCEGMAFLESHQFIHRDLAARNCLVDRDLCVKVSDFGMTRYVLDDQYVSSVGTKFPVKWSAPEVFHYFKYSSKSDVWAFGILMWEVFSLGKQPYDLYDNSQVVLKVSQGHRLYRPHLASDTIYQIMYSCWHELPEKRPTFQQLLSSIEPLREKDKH
The method, boiled down: (§1)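 The ratio of peptide substrate to phosphorylated product, measured by microfluidic mobility shift, gave percent inhibition. Reactions contained enzyme, peptide substrate and compound at 10 μM in HEPES pH 7.5 buffer, ran 2.5 hrs at 20° C. to 22° C., and were quenched with EDTA.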

Assay [3] addresses T2, FLT-3 (Homo sapiens, UniProt P36888).
T2 sequence (P36888 27-993): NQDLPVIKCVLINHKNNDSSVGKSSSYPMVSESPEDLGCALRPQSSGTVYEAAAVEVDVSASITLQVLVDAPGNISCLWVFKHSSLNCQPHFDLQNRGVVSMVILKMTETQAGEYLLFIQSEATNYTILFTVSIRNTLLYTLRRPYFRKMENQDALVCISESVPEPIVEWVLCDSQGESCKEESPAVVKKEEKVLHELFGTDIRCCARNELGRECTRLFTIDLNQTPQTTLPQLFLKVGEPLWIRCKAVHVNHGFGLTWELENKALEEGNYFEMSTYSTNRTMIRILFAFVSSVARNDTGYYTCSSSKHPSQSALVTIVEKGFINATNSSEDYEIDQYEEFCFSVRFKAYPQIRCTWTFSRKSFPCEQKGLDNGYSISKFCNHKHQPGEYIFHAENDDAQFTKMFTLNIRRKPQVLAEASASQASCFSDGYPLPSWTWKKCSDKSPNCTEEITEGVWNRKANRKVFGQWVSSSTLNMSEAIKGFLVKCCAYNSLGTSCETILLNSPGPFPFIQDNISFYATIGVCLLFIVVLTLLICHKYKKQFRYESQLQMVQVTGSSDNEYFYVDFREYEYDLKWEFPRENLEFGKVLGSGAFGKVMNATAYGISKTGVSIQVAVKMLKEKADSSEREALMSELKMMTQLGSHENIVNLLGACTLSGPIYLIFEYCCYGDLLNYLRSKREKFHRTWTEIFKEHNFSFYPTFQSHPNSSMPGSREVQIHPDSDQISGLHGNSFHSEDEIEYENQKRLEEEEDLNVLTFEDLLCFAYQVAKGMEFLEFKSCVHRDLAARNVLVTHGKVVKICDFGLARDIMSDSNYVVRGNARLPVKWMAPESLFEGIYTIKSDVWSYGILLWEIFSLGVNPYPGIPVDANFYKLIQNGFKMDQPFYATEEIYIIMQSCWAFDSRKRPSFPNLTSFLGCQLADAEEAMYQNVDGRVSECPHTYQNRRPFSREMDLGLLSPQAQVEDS
In a few lines: as §1

For assay [4], the target named is KIT (Homo sapiens, UniProt P10721). In a few lines:
as §1

Assay [5] deals with AKT3 (Homo sapiens, UniProt Q9Y243). In a few lines: as §1
Chain of AKT3 (Q9Y243 whole entry): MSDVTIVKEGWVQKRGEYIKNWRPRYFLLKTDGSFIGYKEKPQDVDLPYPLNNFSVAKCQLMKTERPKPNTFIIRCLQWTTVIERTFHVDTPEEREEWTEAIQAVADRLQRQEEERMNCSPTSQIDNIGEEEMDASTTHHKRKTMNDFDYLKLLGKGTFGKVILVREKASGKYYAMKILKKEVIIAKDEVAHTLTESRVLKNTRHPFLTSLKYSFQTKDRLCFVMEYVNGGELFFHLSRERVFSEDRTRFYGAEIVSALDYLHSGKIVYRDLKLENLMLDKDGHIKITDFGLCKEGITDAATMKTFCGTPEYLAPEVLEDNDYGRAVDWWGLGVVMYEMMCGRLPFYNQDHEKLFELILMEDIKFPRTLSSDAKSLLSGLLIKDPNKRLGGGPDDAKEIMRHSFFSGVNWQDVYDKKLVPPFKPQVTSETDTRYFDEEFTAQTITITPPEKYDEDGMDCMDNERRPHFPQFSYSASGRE
For assay [6], the target named is T3, NEK2 (Homo sapiens, UniProt P51955).
T3 sequence (P51955 1-445): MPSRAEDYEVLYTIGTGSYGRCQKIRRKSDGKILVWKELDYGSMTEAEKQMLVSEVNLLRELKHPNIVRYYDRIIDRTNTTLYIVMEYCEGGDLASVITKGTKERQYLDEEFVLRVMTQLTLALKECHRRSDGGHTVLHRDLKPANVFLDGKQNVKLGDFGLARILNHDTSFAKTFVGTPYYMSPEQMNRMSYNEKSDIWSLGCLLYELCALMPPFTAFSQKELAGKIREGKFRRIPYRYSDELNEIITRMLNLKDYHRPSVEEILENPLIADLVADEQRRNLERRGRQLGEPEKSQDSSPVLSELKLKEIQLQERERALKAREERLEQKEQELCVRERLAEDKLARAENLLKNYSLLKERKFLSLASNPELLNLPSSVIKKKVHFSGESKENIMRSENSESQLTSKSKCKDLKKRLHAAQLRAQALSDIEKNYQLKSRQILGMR
In a few lines: as §1

In assay [7] the target is T4, PRAK (Homo sapiens, UniProt Q8IW41).
T4 sequence (Q8IW41 1-473): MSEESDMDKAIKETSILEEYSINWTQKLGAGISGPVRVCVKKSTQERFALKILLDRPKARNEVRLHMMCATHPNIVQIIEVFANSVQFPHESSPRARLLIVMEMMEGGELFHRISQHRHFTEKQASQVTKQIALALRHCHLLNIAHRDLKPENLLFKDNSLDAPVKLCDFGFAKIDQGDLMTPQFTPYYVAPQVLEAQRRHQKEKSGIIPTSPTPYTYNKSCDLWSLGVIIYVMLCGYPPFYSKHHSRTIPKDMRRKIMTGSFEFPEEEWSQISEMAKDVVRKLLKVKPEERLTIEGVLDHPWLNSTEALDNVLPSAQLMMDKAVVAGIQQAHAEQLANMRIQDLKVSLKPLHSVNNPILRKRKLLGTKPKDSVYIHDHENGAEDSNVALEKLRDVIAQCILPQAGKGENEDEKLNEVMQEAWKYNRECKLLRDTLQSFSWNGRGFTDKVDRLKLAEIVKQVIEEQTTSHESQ
In a few lines:
as §1

Assay [8] concerns the target CHEK2 (Homo sapiens, UniProt O96017). The method, boiled down: as §1

Chain of CHEK2 (O96017 whole entry): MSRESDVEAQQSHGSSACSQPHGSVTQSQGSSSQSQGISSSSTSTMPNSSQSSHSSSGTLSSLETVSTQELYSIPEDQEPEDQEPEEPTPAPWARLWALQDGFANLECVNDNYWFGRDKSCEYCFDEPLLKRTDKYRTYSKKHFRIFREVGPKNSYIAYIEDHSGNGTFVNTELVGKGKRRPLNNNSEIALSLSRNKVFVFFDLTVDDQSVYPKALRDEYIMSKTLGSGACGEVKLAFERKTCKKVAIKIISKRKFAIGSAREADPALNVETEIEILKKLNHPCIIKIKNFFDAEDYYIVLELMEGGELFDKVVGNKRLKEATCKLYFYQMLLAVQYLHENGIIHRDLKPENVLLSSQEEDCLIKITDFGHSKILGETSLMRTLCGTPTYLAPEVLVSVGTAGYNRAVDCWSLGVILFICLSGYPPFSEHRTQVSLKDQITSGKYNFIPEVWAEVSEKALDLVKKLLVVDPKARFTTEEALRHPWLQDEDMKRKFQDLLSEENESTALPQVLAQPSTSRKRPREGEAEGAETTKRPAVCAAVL
Chain of KIT (P10721 26-976): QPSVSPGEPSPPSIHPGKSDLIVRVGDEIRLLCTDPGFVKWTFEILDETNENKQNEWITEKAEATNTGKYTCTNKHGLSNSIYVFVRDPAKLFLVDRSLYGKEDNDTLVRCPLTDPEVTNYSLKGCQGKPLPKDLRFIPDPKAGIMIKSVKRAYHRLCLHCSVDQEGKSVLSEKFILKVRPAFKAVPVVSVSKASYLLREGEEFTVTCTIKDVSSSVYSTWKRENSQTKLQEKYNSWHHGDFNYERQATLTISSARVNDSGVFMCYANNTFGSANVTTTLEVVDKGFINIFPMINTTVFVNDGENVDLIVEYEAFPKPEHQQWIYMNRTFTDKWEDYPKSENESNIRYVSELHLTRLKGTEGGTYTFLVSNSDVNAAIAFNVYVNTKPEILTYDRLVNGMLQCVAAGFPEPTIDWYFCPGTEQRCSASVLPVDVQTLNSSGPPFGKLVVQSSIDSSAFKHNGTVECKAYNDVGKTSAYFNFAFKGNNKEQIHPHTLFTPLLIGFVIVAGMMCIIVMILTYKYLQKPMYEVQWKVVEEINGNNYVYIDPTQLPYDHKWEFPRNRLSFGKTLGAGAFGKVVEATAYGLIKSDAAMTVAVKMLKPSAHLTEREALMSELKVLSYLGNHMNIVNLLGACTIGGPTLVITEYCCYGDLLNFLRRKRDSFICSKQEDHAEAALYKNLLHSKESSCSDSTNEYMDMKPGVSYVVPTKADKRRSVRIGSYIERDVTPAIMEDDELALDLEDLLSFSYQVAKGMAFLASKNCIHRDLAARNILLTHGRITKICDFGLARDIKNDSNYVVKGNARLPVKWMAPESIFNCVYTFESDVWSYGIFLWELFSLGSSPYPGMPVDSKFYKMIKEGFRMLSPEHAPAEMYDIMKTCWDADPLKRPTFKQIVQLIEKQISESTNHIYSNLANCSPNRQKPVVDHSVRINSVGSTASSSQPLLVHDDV
Chain of MAPKAPK2 (P49137 whole entry): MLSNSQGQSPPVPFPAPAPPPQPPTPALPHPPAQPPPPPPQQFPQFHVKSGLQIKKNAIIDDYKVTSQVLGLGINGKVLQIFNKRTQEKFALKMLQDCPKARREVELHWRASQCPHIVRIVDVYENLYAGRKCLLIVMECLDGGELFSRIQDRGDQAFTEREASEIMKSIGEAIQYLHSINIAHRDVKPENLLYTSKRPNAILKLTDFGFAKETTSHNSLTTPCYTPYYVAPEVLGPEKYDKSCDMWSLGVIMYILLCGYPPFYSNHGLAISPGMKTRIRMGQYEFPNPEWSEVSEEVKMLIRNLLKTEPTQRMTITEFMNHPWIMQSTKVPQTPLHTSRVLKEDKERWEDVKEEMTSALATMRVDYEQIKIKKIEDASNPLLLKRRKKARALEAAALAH

With `CCC(C)N1CCN(c2ccc(Nc3ccnc4ccc(-c5ccc(C#N)cc5)cc34)cc2)CC1` (stereo not shown) [4-(4-(4-(4-sec-butylpiperazin-1-yl)phenylamino)quinolin-6-yl)benzonitrile], the Activity result was “MAPKAPK2” in assay [1] and “BMX” in assay [2].

For `CN1CCN(c2ccc(N(C)c3ccnc4ccc(-c5ccc(C#N)cc5)cc34)cc2)CC1` [4-(4-(methyl(4-(4-methylpiperazin-1-yl)phenyl)amino)quinolin-6-yl)benzonitrile], the Activity entry in assay [1] is recorded as “MAPKAPK2”; in assay [2] it was “BMX”; in assay [3], “FLT-3”; in assay [4] it was “KIT”.

With `Cc1ccc(C)c(-c2ccc3nccc(Nc4ccc(N5CCN(C)CC5)cc4)c3c2)c1` [6-(2,5-dimethylphenyl)-N-(4-(4-methylpiperazin-1-yl)phenyl)quinolin-4-amine], the Activity entry is given as “MAPKAPK2” in assay [1], “AKT3” in assay [5], “NEK2” in assay [6] and “PRAK” in assay [7].

Consider `CCOc1cccc(-c2ccc3nccc(Nc4ccc(N5CCN(C)CC5)cc4)c3c2)c1` [6-(3-ethoxyphenyl)-N-(4-(4-methylpiperazin-1-yl)phenyl)quinolin-4-amine], for which the Activity entry in assay [1] is “MAPKAPK2”; in assay [8], “CHEK2”; in assay [6], “NEK2”; in assay [7], “PARK”.

On to `CN1CCN(c2ccc(Nc3ccnc4ccc(-c5ccco5)cc34)cc2)CC1` [6-(furan-2-yl)-N-(4-(4-methylpiperazin-1-yl)phenyl)quinolin-4-amine], for which the values for the Activity entry in assay [1], in assay [8] and in assay [7] were “MAPKAPK2”, “CHEK2” and “PRAK”, respectively.

With `CN1CCN(c2ccc(Nc3ccnc4ccc(-c5cccc(CO)c5)cc34)cc2)CC1` [(3-(4-(4-(4-methylpiperazin-1-yl)phenylamino)quinolin-6-yl)phenyl)methanol], the Activity result in assay [1] is reported as “MAPKAPK2”; in assay [8], “CHEK2”; in assay [3], “FLT3”; in assay [7], “PRAK”.

Take `COc1ccc(-c2ccc3nccc(Nc4ccc(N5CCN(C(C)C)CC5)cc4)c3c2)cc1` [N-(4-(4-isopropylpiperazin-1-yl)phenyl)-6-(4-methoxyphenyl)quinolin-4-amine]: the Activity entry in assay [1] is recorded as “MAPKAPK2”; in assay [2], “BMX”.

In the case of `CC(C)N1CCN(c2ccc(Nc3ccnc4ccc(-c5ccccc5)cc34)cc2)CC1` [N-(4-(4-isopropylpiperazin-1-yl)phenyl)-6-phenylquinolin-4-amine], the Activity entry in assay [1] was “MAPKAPK2”; in assay [4] it was “KIT”.

For `CN1CCN(c2ccc(Nc3ccnc4ccc(-c5cccc6cccnc56)cc34)cc2)CC1` [N-(4-(4-methylpiperazin-1-yl)phenyl)-6,8′-biquinolin-4-amine], the Activity result in assay [1] is listed as “MAPKAPK2”; in assay [2], “BMX”; in assay [4], “KIT”; in assay [7], “PRAK”.

With `CN1CCN(c2ccc(Nc3ccnc4ccc(-c5cccc([N+](=O)[O-])c5)cc34)cc2)CC1` [N-(4-(4-methylpiperazin-1-yl)phenyl)-6-(3-nitrophenyl)quinolin-4-amine], the Activity entry in assay [5] is given as “AKT3”; in assay [7] it was “PRAK”.

For `Cc1csc(-c2ccc3nccc(Nc4ccc(N5CCN(C)CC5)cc4)c3c2)c1` [N-(4-(4-methylpiperazin-1-yl)phenyl)-6-(4-methylthiophen-2-yl)quinolin-4-amine], the Activity entry in assay [1] is given as “MAPKAPK2”; in assay [8] it was “CHEK2”; in assay [6], “NEK2”; in assay [7], “PRAK”.

On to `C=Cc1ccc(-c2ccc3nccc(Nc4ccc(N5CCN(C)CC5)cc4)c3c2)cc1` [N-(4-(4-methylpiperazin-1-yl)phenyl)-6-(4-vinylphenyl)quinolin-4-amine], for which the Activity entry in assay [1] is “MAPKAPK2”; in assay [8] it was “CHEK2”; in assay [6] it was “NEK2”; in assay [7], “PRAK”.

For the molecule `CN1CCN(c2ccc(Nc3ccnc4ccc(-c5cccnc5)cc34)cc2)CC1` [N-(4-(4-methylpiperazin-1-yl)phenyl)-6-(pyridin-3-yl)quinolin-4-amine], the values for the Activity entry in assay [1], in assay [5] and in assay [7] were “MAPKAPK2”, “AKT3” and “PRAK”, respectively.

As for `CN1CCN(c2ccc(N(C)c3ccnc4ccc(-c5ccccc5)cc34)cc2)CC1` [N-methyl-N-(4-(4-methylpiperazin-1-yl)phenyl)-6-phenylquinolin-4-amine], the Activity result in assay [1] was “MAPKAPK2”; in assay [2], “BMX”; in assay [3], “FLT-3”; in assay [4], “KIT”.
